From ChEMBL document CHEMBL4665782, “Furostanol Saponins from Trillium tschonoskii Promote the Expansion of Human Cord Blood Hematopoietic Stem and Progenitor Cells” (2020)
The source made the active and inactive calls. The rule behind the calls is not given here.

What was measured:
[1] = test system: CD34-positive (myeloid/lymphoid) cell; assay: Expansion-promoting activity against human CD34+ cells assessed as increase in Lin-CD34+CD38-CD45RA-CD49f-CD90- multipotent progenitor cells measured after 4 days by FACS analysis; type: functional, cell-based
[2] = Expansion-promoting activity against human CD34+ cells assessed as increase in Lin-CD34+CD38-CD45RA-CD49f+CD90- multipotent progenitor cells measured after 4 days by FACS analysis relative to control; type: functional, CD34-positive (myeloid/lymphoid) cell
[3] = Expansion of human CD34+cells measured after 4 days by FACS analysis; type: functional, CD34-positive (myeloid/lymphoid) cell
[4] = test system: CD34-positive (myeloid/lymphoid) cell; assay: Expansion-promoting activity against human CD34+cells assessed as increase in CD34+/CD38- cells measured after 4 days by FACS analysis; type: functional, cell-based

Row | SMILES | Activity [1] | fold change (FC) [2] | fold change (FC) [3] | Activity [4]
1 | Cc1c(CC[C@@H](C)CO[C@@H]2O[C@H](CO)[C@@H](O)[C@H](O)[C@H]2O)oc2c1[C@@]1(C)CC[C@H]3[C@@H](CC=C4C[C@@H](O[C@@H]5O[C@H](CO)[C@@H](O)[C@H](O)[C@H]5O[C@@H]5O[C@@H](C)[C@H](O)[C@@H](O)[C@H]5O)CC[C@@]43C)[C@@H]1C2 | Active | 0.9 | 5.5 | Active
2 | CC1=C2[C@](O)(C[C@H]3[C@@H]4C[C@@H](O)[C@@]5(O)C[C@@H](O[C@@H]6O[C@H](CO)[C@@H](O[C@@H]7O[C@@H](C)[C@H](O[C@@H]8O[C@@H](C)[C@H](O)[C@@H](O)[C@H]8O)[C@@H](O)[C@H]7O)[C@H](O)[C@H]6O[C@@H]6O[C@@H](C)[C@H](O)[C@@H](O)[C@H]6O)CC[C@]5(C)[C@H]4CC[C@]23C)C(C[C@@H](C)CO[C@@H]2O[C@H](CO)[C@@H](O)[C@H](O)[C@H]2O)C1=O (some centres undefined) | Active | 1.3 | 6.7 | Active
3 | C/C(C(=O)CC[C@@H](C)CO[C@@H]1O[C@H](CO)[C@@H](O)[C@H](O)[C@H]1O)=C1/C(=O)C[C@H]2[C@@H]3C(=O)C=C4C[C@@H](O[C@@H]5O[C@H](CO)[C@@H](O[C@@H]6O[C@@H](C)[C@H](O)[C@@H](O)[C@H]6O)[C@H](O)[C@H]5O[C@@H]5O[C@@H](C)[C@H](O)[C@@H](O)[C@H]5O)CC[C@]4(C)[C@H]3CC[C@]12C |  |  |  | Active
4 | C[C@H](CC[C@@]1(O)OC2C[C@H]3[C@@H]4CC=C5C[C@@H](O[C@@H]6O[C@H](CO)[C@@H](O[C@@H]7O[C@H](CO)[C@H](O)[C@@H](O)[C@H]7O)[C@H](O)[C@H]6O[C@@H]6O[C@@H](C)[C@H](O)[C@@H](O)[C@H]6O)CC[C@]5(C)[C@H]4CC[C@]3(C)[C@@]2(O)[C@@H]1C)CO[C@@H]1O[C@H](CO)[C@@H](O)[C@H](O)[C@H]1O (some centres undefined) | Active | 1.9 | 8.8 | Active
5 | C[C@H](CC[C@@]1(O)OC2C[C@H]3[C@@H]4C[C@@H](O)[C@@]5(O)C[C@@H](O[C@@H]6O[C@H](CO)[C@@H](O[C@@H]7O[C@@H](C)[C@H](O[C@@H]8O[C@@H](C)[C@H](O)[C@@H](O)[C@H]8O)[C@@H](O)[C@H]7O)[C@H](O)[C@H]6O[C@@H]6O[C@@H](C)[C@H](O)[C@@H](O)[C@H]6O)CC[C@]5(C)[C@H]4CC[C@]3(C)[C@@]2(O)[C@@H]1C)CO[C@@H]1O[C@H](CO)[C@@H](O)[C@H](O)[C@H]1O (some centres undefined) | Active | 1.8 | 8.4 | 
6 | Cc1c(CC[C@@H](C)CO[C@@H]2O[C@H](CO)[C@@H](O)[C@H](O)[C@H]2O)oc2c1[C@@]1(C)CC[C@H]3[C@@H](C[C@@H](O)[C@@]4(O)C[C@@H](O[C@@H]5O[C@H](CO)[C@@H](O[C@@H]6O[C@@H](C)[C@H](O[C@@H]7O[C@@H](C)[C@H](O)[C@@H](O)[C@H]7O)[C@@H](O)[C@H]6O)[C@H](O)[C@H]5O[C@@H]5O[C@@H](C)[C@H](O)[C@@H](O)[C@H]5O)CC[C@]34C)[C@@H]1C2 | Active | 1.6 | 7.7 | Active
7 | C/C(C(=O)CC[C@@H](C)CO[C@@H]1O[C@H](CO)[C@@H](O)[C@H](O)[C@H]1O)=C1/C(=O)C[C@H]2[C@@H]3CC=C4C[C@@H](O[C@@H]5O[C@H](CO)[C@@H](O[C@@H]6O[C@@H](C)[C@H](O)[C@@H](O)[C@H]6O)[C@H](O)[C@H]5O[C@@H]5O[C@@H](C)[C@H](O)[C@@H](O)[C@H]5O)CC[C@]4(C)[C@H]3CC[C@]12C | Active |  |  | 
8 | C/C(C(=O)CC[C@@H](C)CO[C@@H]1O[C@H](CO)[C@@H](O)[C@H](O)[C@H]1O)=C1/C(=O)C[C@H]2[C@@H]3CC=C4C[C@@H](O[C@@H]5O[C@H](CO)[C@@H](O)[C@H](O)[C@H]5O[C@@H]5O[C@@H](C)[C@H](O)[C@@H](O)[C@H]5O)CC[C@]4(C)[C@H]3CC[C@]12C | Active | 1 | 5.7 | Active
9 | C[C@H](CC[C@@]1(O)OC2C[C@H]3[C@@H]4C[C@@H](O)[C@@]5(O)C[C@@H](O[C@@H]6O[C@H](CO)[C@@H](O)[C@H](O)[C@H]6O[C@@H]6O[C@@H](C)[C@H](O)[C@@H](O)[C@H]6O)CC[C@]5(C)[C@H]4CC[C@]3(C)[C@@]2(O)[C@@H]1C)CO[C@@H]1O[C@H](CO)[C@@H](O)[C@H](O)[C@H]1O (some centres undefined) | Active |  |  | 
10 | C[C@H](CCC(=O)[C@@H](C)C1C(=O)C[C@H]2[C@@H]3CC=C4C[C@@H](O[C@@H]5O[C@H](CO)[C@@H](O)[C@H](O)[C@H]5O[C@@H]5O[C@@H](C)[C@H](O)[C@@H](O)[C@H]5O)CC[C@]4(C)[C@H]3CC[C@]12C)CO[C@@H]1O[C@H](CO)[C@@H](O)[C@H](O)[C@H]1O (some centres undefined) | Active | 1.8 | 8.4 | Active
11 | CC1=C2[C@](O)(C[C@H]3[C@@H]4C[C@@H](O)[C@@]5(O)C[C@@H](O[C@@H]6O[C@H](CO)[C@@H](O[C@@H]7O[C@@H](C)[C@H](O)[C@@H](O)[C@H]7O)[C@H](O)[C@H]6O[C@@H]6O[C@@H](C)[C@H](O)[C@@H](O)[C@H]6O)CC[C@]5(C)[C@H]4CC[C@]23C)C(C[C@@H](C)CO[C@@H]2O[C@H](CO)[C@@H](O)[C@H](O)[C@H]2O)C1=O (some centres undefined) | Active |  |  | Active
12 | C[C@H](CCC(=O)[C@@H](C)C1C(=O)C[C@H]2[C@@H]3CC=C4C[C@@H](O[C@@H]5O[C@H](CO)[C@@H](O[C@@H]6O[C@@H](C)[C@H](O)[C@@H](O)[C@H]6O)[C@H](O)[C@H]5O[C@@H]5O[C@@H](C)[C@H](O)[C@@H](O)[C@H]5O)CC[C@]4(C)[C@H]3CC[C@]12C)CO[C@@H]1O[C@H](CO)[C@@H](O)[C@H](O)[C@H]1O (some centres undefined) | Active |  |  | Active
